Consider nine compounds from PubChem BioAssay (NCI).

What all share (experiment): growth of human tumour cells (NCI), 48 h
Test [1] concerns LOX IMVI melanoma.
The subject of test [2] is NCI-H460 lung.
For test [3], the system named is OVCAR-8 ovarian.
For test [4], the system named is COLO 205 colon.
In test [5] the test system is HCT-116 colon.
Test [6] deals with DMS 273 small cell lung.
In test [7] the test system is A549 NSCLC.
The subject of test [8] is LXFL 529 NSCLC.
Test [9] concerns RXF 393 renal.
In test [10] the test system is ACHN renal.

Structures are written as SMILES. “And” between values parts separate entries of the source, which are not always exact repeats. Equal values may be shown once.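 Five concentrations, 48 hours, 96-well plates. Here, GI50 denotes the concentration required for 50% inhibition of growth. TGI: concentration producing complete growth inhibition.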

With `COc1cc(C[C@H]2c3cc(OC)c(OC)cc3CCN2C)c(Oc2cc3c(cc2OC)-c2c(OC)c(OC)cc4c2[C@H](C3)N(C)CC4)cc1OC`, the GI50 is 9.21 µM in [1]; 14.1 µM in [2]; 17 µM in [3]; 2.17 µM in test [4]; 10.4 µM in test [5]; 14.6 µM in test [6]. Besides, the GI50 is 15.6 µM in [7], 8.62 µM in [9] and 14.5 µM in test [10]. Besides, the TGI is 14.7 µM and 24.3 µM in [1]; 20.1 µM and 27.5 µM in test [2]; 18.5 µM and 35 µM in test [3]; 12.6 µM and 8.09 µM in [4]; 14 µM and 22.4 µM in test [5]; 27.6 µM and 28.1 µM in test [6]. Besides, the TGI is 28.2 µM and 29.4 µM in test [7]; 23.6 µM in [8]; 7.35 µM and 21.3 µM in test [9]; 30 µM and 27.5 µM in test [10].

With `CCN(CC)c1c(C(=O)/C=C/c2ccc(OC)cc2)c(-c2ccccc2)nn(C)c1=O`, the TGI in [1] was 44.9 µM; in test [2], 35.4 µM; in test [3] it was over 100 µM; in test [4] it was 9.25 µM; in test [6], 5.13 µM; in test [7], 81 µM. For the same compound, the TGI is over 100 µM in [8], 25 µM in test [9] and over 100 µM in test [10].

In the case of `CCOC(=O)N1CCN(C=S)CC1`, the TGI in test [1], in test [2], in test [3], in [4], in test [5] and in test [6] was over 100 µM in each case. In addition, the TGI in test [7], in [8], in test [9] and in [10] was over 100 µM throughout.

With `O=[N+]([O-])c1cc(C(F)(F)F)cc([N+](=O)[O-])c1CCl`, the TGI is 0.274 µM in [1]; 21.4 µM in test [2]; 4.91 µM in test [3]; 4.14 µM in test [4]; 2.46 µM in test [5]; 2.62 µM in test [6]. The TGI came out at 24.7 µM in test [7], 0.639 µM in test [8], 5.09 µM in test [9] and 27.9 µM in test [10].

As to `Cc1cc(=O)n(-c2ccccc2C)c(C)n1`, the TGI in test [1], in test [2], in test [3], in test [4], in [5] and in test [6] was over 100 µM each time. In addition, the TGI in [7], in test [8], in test [9] and in [10] was over 100 µM each time.

Turning to `CC(=O)CC(=O)OC1CC(C)CCC1C(C)C` (configuration not stated), the TGI in test [1] is over 100 µM; in test [2], over 100 µM; in test [3], over 100 µM; in test [4], over 100 µM; in test [5], 80.1 µM; in test [6], over 100 µM. Moreover, the TGI in test [7], in test [8], in test [9] and in test [10] was over 100 µM throughout.

`CCC[CH2][Sn]1([CH2]CCC)[O]C(=O)c2cccnc2[O]1`: the GI50 in test [1] was 1.81 µM; in [2] it was 13.3 µM; in [3] it was 2.25 µM; in test [4], 1.88 µM; in [5], 3.61 µM; in test [6], 2.37 µM. In addition, the GI50 in test [7] is 18.2 µM; in [8] it was 0.849 µM; in test [9] it was 2.02 µM; in [10] it was 2.14 µM. For the same compound, the TGI in test [1] amounted to 3.51 µM; in test [2], 26 µM; in test [3] it was 7.64 µM; in test [4], 3.65 µM; in test [5], 11.4 µM; in test [6], 11.3 µM. In addition, the TGI in test [7] was 33 µM; in [8] it was 2.22 µM; in test [9], 3.82 µM; in test [10], 5.21 µM.

With `COC(=O)/C(C)=C(/CCC1(C)OCCO1)O[Si](C)(C)C`, the TGI in [1], in test [2], in test [3], in test [4], in test [5] and in test [6] was over 100 µM each time. The TGI in [7], in test [8], in [9] and in test [10] was over 100 µM in each case.

`Cc1ccc2nc(NC(=O)C(=O)C(C#N)c3nc4ccccc4s3)sc2c1` (configuration not stated): the TGI in [1] is over 100 µM; in [2], over 100 µM; in [3], over 100 µM; in test [4], 38.4 µM; in test [5], over 100 µM; in test [6], over 100 µM. The TGI is over 100 µM in test [8], 90.9 µM in test [9] and over 100 µM in test [10].
